Molecules are shown by their SMILES.

The target in one assay is MEK1 (Homo sapiens, UniProt Q02750). Put plainly: biochemical. The note with it: read-out: % enzyme activity, 1 μM; Run 1, Run 2.
The target of a further assay is RET (Homo sapiens, UniProt P07949). The note with it: 1 μM; Run 1, Run 2.
The target in the next assay is WEE1 (Homo sapiens, UniProt P30291). The note with it: 1 μM; Run 1, Run 2.
The next assay addresses HIPK1 (Homo sapiens, UniProt Q86Z02). The following applies: 1 μM; Run 1, Run 2.
For another assay, the target named is T1, TAOK2/TAO1 (Homo sapiens, UniProt Q9UL54).
T1 sequence (Q9UL54 1-1235): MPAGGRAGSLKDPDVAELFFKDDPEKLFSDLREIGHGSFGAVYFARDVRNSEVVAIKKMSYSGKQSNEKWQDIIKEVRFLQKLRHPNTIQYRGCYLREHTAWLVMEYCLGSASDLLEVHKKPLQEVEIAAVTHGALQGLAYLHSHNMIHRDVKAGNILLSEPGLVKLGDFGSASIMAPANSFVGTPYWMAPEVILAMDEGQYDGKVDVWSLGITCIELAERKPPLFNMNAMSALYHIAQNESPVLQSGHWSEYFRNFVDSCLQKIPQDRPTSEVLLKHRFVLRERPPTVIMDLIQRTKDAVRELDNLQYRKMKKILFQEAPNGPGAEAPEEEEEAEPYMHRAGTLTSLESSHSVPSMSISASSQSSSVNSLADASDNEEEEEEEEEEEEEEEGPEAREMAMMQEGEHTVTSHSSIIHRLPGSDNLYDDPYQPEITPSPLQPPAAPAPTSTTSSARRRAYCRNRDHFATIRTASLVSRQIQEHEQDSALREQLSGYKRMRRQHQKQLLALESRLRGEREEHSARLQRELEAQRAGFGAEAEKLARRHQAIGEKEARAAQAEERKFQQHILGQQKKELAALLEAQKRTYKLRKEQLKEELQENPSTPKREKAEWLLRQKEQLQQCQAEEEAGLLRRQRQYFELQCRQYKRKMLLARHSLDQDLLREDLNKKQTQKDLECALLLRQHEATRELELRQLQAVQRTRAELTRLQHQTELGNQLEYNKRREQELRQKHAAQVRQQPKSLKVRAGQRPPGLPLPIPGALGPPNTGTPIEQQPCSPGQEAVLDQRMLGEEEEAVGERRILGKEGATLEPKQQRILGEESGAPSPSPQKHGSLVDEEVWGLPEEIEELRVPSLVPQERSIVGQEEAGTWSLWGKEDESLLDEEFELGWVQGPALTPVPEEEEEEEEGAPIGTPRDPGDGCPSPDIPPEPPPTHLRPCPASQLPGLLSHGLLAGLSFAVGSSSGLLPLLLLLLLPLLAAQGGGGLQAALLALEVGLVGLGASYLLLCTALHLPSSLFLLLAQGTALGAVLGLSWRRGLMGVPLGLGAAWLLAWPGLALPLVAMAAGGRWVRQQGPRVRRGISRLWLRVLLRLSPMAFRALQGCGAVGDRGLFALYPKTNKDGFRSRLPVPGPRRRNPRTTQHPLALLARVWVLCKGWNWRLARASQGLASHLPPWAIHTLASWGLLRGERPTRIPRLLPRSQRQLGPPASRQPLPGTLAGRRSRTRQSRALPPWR
The assay can be described thus: biochemical. The following applies: read-out: % enzyme activity, 1 μM; Run 1, Run 2.

The next assay has as its target CAMK2d (Homo sapiens, UniProt Q13557). Put plainly: biochemical. The note with it: read-out: % enzyme activity, 1 μM; Run 1, Run 2.
For the next assay, the target named is CAMK1d (Homo sapiens, UniProt Q8IU85). Put plainly: biochemical. The note with it: read-out: % enzyme activity, 1 μM; Run 1, Run 2.
The target in the next assay is T2, BRSK2 (Homo sapiens, UniProt Q8IWQ3).
T2 sequence (Q8IWQ3 1-736): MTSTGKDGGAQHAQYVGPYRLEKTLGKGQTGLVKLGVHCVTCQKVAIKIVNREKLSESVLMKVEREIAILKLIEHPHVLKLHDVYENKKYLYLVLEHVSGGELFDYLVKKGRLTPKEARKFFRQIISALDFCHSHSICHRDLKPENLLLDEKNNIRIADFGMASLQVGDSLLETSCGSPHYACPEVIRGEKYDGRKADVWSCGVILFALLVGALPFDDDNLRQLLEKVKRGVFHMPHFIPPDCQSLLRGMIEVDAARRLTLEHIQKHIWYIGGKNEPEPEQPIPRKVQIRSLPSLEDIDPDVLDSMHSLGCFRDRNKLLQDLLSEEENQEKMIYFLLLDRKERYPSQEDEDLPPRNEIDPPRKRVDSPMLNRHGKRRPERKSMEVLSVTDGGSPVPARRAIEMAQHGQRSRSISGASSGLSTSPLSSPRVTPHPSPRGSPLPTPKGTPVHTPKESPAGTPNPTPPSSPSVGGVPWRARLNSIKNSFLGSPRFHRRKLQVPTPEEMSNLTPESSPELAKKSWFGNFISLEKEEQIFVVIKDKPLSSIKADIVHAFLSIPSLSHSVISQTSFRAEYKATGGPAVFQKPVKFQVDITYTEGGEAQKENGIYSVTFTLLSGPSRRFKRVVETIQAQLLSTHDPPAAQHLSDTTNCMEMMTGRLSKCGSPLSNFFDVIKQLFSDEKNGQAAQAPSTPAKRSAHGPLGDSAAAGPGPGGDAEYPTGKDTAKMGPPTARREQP
The following applies: 1 μM; Run 1, Run 2.

Sequence of CAMK1d (Q8IU85 whole entry): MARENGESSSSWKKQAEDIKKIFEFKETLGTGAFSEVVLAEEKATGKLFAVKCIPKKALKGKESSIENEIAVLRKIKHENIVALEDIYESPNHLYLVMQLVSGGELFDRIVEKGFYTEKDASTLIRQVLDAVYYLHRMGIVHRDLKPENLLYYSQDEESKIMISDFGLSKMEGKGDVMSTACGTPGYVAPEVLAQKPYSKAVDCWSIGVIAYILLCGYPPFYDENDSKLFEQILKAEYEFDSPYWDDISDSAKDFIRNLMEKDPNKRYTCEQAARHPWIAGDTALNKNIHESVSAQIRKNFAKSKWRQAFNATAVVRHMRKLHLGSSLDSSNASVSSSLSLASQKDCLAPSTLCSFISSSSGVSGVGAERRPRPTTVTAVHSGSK
Sequence of CAMK2d (Q13557 whole entry): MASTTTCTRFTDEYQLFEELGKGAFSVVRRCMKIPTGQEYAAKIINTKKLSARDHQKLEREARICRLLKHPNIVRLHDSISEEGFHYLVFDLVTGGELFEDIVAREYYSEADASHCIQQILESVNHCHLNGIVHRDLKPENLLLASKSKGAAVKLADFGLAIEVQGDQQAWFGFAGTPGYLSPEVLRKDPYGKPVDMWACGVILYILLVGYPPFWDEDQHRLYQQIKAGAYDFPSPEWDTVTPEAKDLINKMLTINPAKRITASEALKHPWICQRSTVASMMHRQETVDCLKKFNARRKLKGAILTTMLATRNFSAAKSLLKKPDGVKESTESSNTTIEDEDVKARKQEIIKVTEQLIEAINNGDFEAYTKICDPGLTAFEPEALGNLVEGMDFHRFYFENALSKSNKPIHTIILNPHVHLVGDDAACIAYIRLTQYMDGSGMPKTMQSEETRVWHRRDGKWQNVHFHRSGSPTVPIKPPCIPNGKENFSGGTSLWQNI
Sequence of HIPK1 (Q86Z02 whole entry): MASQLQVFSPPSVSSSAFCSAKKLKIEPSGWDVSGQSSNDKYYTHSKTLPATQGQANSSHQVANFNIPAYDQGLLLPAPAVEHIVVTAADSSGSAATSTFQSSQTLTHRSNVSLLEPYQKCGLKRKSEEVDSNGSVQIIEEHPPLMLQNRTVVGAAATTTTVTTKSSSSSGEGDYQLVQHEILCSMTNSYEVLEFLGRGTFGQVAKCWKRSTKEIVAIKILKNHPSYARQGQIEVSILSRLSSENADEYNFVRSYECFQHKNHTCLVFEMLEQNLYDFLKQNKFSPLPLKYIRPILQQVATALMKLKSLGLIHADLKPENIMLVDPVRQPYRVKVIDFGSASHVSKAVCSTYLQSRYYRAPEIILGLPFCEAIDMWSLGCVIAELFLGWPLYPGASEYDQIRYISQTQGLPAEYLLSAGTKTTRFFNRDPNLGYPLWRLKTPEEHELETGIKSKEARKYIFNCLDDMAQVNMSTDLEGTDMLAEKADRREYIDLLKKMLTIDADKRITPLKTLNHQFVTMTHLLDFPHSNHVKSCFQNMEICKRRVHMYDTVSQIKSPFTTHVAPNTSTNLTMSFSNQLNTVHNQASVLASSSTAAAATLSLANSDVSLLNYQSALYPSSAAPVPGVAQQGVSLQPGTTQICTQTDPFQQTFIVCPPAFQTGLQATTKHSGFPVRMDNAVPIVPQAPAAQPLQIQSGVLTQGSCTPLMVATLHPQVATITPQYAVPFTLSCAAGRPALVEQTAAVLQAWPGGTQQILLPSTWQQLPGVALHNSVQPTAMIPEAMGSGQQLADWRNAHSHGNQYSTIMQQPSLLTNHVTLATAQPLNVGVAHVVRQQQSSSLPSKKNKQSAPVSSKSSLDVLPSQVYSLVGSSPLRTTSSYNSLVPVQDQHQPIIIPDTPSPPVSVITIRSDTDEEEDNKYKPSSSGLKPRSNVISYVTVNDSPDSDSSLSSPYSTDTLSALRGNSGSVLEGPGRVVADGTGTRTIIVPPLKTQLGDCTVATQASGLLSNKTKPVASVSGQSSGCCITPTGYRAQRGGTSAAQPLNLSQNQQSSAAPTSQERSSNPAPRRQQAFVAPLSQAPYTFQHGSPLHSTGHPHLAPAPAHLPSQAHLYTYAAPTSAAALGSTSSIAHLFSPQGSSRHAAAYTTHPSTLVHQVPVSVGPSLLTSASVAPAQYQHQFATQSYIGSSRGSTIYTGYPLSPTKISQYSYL
Sequence of WEE1 (P30291 whole entry, species assumed): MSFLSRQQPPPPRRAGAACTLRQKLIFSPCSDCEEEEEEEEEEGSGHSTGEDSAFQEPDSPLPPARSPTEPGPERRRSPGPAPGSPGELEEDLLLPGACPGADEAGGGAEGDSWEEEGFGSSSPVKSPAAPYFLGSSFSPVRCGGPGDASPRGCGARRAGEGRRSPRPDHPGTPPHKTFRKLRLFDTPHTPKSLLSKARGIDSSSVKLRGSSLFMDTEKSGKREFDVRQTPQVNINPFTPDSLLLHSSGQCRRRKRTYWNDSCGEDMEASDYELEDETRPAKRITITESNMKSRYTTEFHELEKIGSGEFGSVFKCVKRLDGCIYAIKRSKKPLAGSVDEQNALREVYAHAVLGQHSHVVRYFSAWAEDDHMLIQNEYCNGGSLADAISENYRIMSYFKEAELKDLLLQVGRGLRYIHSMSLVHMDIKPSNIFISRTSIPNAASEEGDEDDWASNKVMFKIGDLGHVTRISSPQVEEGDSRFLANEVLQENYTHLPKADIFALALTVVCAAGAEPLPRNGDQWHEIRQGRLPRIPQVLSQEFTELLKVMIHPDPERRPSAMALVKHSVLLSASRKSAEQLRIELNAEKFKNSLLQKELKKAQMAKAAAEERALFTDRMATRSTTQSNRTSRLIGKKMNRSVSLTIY
Sequence of MEK1 (Q02750 whole entry): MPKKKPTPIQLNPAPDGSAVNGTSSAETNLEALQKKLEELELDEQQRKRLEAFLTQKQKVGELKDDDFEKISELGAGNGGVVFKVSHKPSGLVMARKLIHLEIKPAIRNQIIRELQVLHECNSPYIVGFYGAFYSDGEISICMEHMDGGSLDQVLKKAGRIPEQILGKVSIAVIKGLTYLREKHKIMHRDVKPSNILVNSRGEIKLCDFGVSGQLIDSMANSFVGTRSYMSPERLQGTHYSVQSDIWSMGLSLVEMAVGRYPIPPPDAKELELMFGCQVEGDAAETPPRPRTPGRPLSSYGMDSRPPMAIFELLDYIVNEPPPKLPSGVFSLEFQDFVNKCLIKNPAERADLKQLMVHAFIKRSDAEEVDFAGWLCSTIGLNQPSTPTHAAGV
Sequence of RET (P07949 29-1114): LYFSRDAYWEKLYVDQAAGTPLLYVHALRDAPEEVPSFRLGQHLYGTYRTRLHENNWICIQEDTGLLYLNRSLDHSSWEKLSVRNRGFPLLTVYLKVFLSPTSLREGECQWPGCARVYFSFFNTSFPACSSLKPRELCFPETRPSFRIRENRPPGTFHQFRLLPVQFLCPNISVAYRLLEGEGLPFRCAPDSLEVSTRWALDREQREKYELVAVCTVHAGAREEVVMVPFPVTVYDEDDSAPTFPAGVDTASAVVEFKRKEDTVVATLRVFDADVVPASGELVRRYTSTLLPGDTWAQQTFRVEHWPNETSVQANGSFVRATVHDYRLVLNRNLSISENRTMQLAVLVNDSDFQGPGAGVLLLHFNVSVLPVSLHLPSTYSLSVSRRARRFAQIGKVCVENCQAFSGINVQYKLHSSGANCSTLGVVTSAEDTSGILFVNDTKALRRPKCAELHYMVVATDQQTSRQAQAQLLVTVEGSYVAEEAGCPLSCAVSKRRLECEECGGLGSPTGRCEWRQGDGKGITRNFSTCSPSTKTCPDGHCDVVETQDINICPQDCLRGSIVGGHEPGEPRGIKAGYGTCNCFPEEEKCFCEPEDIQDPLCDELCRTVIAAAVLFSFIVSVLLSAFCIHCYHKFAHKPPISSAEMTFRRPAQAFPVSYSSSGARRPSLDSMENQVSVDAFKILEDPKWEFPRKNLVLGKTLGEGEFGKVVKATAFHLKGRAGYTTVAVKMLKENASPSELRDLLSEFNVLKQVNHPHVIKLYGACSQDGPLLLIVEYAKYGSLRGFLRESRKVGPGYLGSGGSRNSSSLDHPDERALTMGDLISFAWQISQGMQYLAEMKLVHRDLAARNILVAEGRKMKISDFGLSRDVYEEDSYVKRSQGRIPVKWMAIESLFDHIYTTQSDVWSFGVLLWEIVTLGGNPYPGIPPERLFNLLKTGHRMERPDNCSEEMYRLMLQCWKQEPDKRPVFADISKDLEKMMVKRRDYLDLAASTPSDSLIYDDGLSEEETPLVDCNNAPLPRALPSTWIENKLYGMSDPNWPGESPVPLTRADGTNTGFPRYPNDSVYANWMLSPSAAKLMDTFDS

In the case of `COc1cc(-c2cncc(-c3ccc(N4C[C@@H](C)N(C)[C@@H](C)C4)cc3)c2C)cc(F)c1C(N)=O` [Compound 26c, 2-Fluoro-6-methoxy-4-(4-methyl-5-(4-((3R,5S)-3,4,5-trimethylpiperazin-1-yl)phenyl)pyridin-3-yl)benzamide], the remaining activity at 1 µM at MEK1 was found to be 95.1%; at TAOK2/TAO1, 101%; at CAMK2d, 96.2%; at CAMK1d, 99.9%. Moreover, the “% enzyme activity” value on RET is listed as 93.64%; on WEE1, 99.73%; on HIPK1 it was 96.64%; on BRSK2 it was 76.84%.
In the case of `COc1cc(-c2cncc(-c3ccc(N4CCN(C)CC4)cc3)c2C)cc(F)c1C(N)=O` [Compound 26a, 2-Fluoro-6-methoxy-4-(4-methyl-5-(4-(4-methylpiperazin-1-yl)phenyl)pyridin-3-yl)benzamide], the remaining activity at 1 µM came to 97.5% on MEK1, 88.6% on TAOK2/TAO1, 95.1% on CAMK2d and 98.5% at CAMK1d. Further, the “% enzyme activity” value on RET is 94.34%; on WEE1, 104.15%; on HIPK1 it was 102.36%; at BRSK2, 60.95%.

The values above are taken from paper PMC8213057, “Targeting ALK2: An Open Science Approach to Developing Therapeutics for the Treatment of Diffuse Intrinsic Pontine Glioma” (Journal of Medicinal Chemistry, 2020).
